In brackets after ≈: the same amount, converted by molar mass.
Key:
[1] = tested on: Enterobacter aerogenes ATCC 13048; assay: MIC assay (microbroth dilution) ± 25 μM EPI; type: cell-based
From the text: (§1) • Strains and Reagents. The following strains were obtained from the Keio collection (Baba, et al.: Construction of Escherichia coli K-12 in-frame, single-gene knockout mutants: the Keio collection. In Mol Syst Biol, vol. 2, pp. 2006 0008, (2006)): JW0451 (ΔacrB::kan), JW5503 (ΔtolC::kan), JW3234 (ΔacrF::kan), JW2661 (ΔemrB::kan), JW0863 (ΔmacB::kan). The deletion mutations in each of these strains were transferred to AB1157 using P1 phage transduction (see Table 1). The construction of the E. coli cell-based reporter strain (SOS-XXX) that was used for high throughput screening is described in detail in the supplementary information. […] Irgasan was a generous gift from Ciba Speciality Chemicals, Inc. (High Point, N.C.). Hoechst 33342 (H33342) was purchased from Molecular Probes (Eugene, Oreg.). […] Luria Broth (Miller) and agar were purchased as prepared dehydrated media from Becton Dickenson (Franklin Lakes, N.J.). The compound libraries used in high-throughput screens were purchased from Chembridge (San Diego, Calif.), ChemDiv (San Diego, Calif.), and TimTec (Newark, Del.). MBX2319 was synthesized by Microbiotix, Inc. • Antibacterial Activity Assays. The minimal inhibitory concentration (MIC) of antibacterial agents and biocides were determined using the microbroth dilution method essentially as described in the CLSI protocol M7-A7 (CLSI: Method for dilution antimicrobial susceptibility testing for bacteria that grow aerobically; Approved standard-document M7-A7. In Clinical and Laboratory Standards Institute document M7-A7, Clinical and Laboratory Standards Institute, Wayne, Pa., (2006)), with the following exceptions. LB media was used instead of MHB. […] The final concentration of DMSO in each assay was 2%. […] MIC assays were performed in triplicate and the geometric mean was calculated. Checkerboard MIC assays using an EPI and an antibacterial agent were performed essentially as described (Pillai, et al.: Antimicrobial Combinations. In Antibiotics in Laboratory Medicine, ed. by V. Lorian, pp. 365-440, Lippincott Williams & Wilkins, Philadelphia, Pa., (2005)), with the same modifications used for the MIC assays described above. • Time-Kill Assays. Killing curve assays were performed essentially as described (Pillai, et al.: Antimicrobial Combinations. In Antibiotics in Laboratory Medicine, ed. by V. Lorian, pp. 365-440, Lippincott Williams & Wilkins, Philadelphia, Pa., (2005)). Exponential bacterial cultures grown in LB were diluted to a cell density of ˜1×10^7 in LB followed by addition of CIP and/or an EPI. Viability was monitored over 2-4 hours by making serial dilutions in saline and spotting 5 μl of each dilution onto the surface of an LB agar plate in triplicate. Colonies were counted after the plates were incubated at 37° C. for 16-18 hr, colony forming units (CFU) per ml were calculated, and the average and standard deviation for the three replicates was determined. For treatments that decreased CFU/ml below the limit of detection for the spot plating method, the 100 μl samples were diluted into 5 ml LB top agar, were poured onto LB agar plates, and incubated for 18 hr at 37° C. To calculate the fraction of the control for each sample, the average CFU/ml values for treated samples were divided by those from the same sample at 0 h (time=0). Each experiment was repeated at least three times, and a representative experiment is shown. • H33342 Accumulation Assay. The rate of accumulation of the fluorescent dye Hoechst 33342 (H33342), which is a substrate of a wide variety of bacterial efflux pumps (van den Berg van Saparoea, et al., Biochemistry, vol. 44, pp. 16931-16938, (2005)), can be used to estimate the activity of the major efflux pumps in E. coli and many other bacterial species. The H33342 accumulation assay was used to evaluate the effect of EPIs on the activity of the AcrAB-TolC efflux pump in several bacterial species essentially as described (Coldham, et al., J Antimicrob Chemother, vol. 65, pp. 1655-1663, (2010)). […]

[2] = tested on: Escherichia coli 331; assay: MIC assay (microbroth dilution) ± 25 μM EPI; type: cell-based; conditions: E. coli 331
From the text: as §1

[3] = tested on: Escherichia coli AB1157; assay: MIC assay (microbroth dilution) ± 25 μM EPI; type: cell-based; conditions: E. coli AB1157 (WT); + 25 μM MBX2319; geometric mean
From the text: as §1

[4] = tested on: Escherichia coli ATCC 25922; assay: MIC assay (microbroth dilution) ± 25 μM EPI; type: cell-based; conditions: E. coli ATCC 25922
From the text: as §1

[5] = tested on: Shigella flexneri ATCC 12022; assay: MIC assay (microbroth dilution) ± 25 μM EPI; type: cell-based
From the text: as §1

[6] = tested on: Salmonella enterica ATCC 14028; assay: MIC assay (microbroth dilution) ± 25 μM EPI; type: cell-based
From the text: as §1

[7] = tested on: Klebsiella pneumoniae ATCC 700603; assay: MIC assay (microbroth dilution) ± 25 μM EPI; type: cell-based
From the text: as §1

[8] = tested on: Escherichia coli AB1157 ΔacrB; assay: Checkerboard MIC assay (antibacterial agent + MBX2319); type: cell-based
From the text: as §1

[9] = tested on: Escherichia coli AB1157 ΔacrF; assay: as above; type: cell-based
From the text: as §1

[10] = tested on: Escherichia coli AB1157 (WT); assay: as above; type: cell-based; conditions: WT
From the text: as §1

[11] = tested on: Escherichia coli AB1157 ΔtolC; assay: as above; type: cell-based
From the text: as §1

[12] = tested on: Escherichia coli AB1157; assay: microbe, parasite or virus in culture
[13] = tested on: P. aeruginosa ATCC 27853; assay: MIC assay (microbroth dilution) ± 25 μM EPI; type: cell-based, Pseudomonas aeruginosa
From the text: as §1

[14] = Escherichia coli, read-out: MIC (μg/ml) with MBX2319 at concn (μM) of: 0

Q: Which “MIC (μg/ml) ± EPI: MBX2319” value ([1]; + 25 μM MBX2319) does the source give for `C[C@H]1COc2c(N3CCN(C)CC3)c(F)cc3c(=O)c(C(=O)O)cn1c23` [Levofloxacin] here?
A: 0.044 µg/mL

Q: And the “MIC (μg/ml) ± EPI: PAβN” value ([1]; + 25 μM PAβN)?
A: 0.063 µg/mL

Q: And the MIC ([1]; Klebsiella aerogenes, ATCC13048, no EPI, read-out: MIC (μg/ml) ± EPI: None)?
A: 0.177 µg/mL

Q: What about the “MIC (μg/ml) ± EPI: MBX2319” value ([2]; + 25 μM MBX2319) of the same molecule?
A: 11.3 µg/mL

Q: And the “MIC (μg/ml) ± EPI: PAβN” value ([2]; + 25 μM PAβN)?
A: 32 µg/mL

Q: And the MIC ([2]; Escherichia coli, no EPI, read-out: MIC (μg/ml) ± EPI: None)?
A: 64 µg/mL

Q: What about the “MICs (μg/ml) ± EPIs: MBX2319” value [3] of the same molecule?
A: 0.016 µg/mL

Q: What about the “MIC (μg/ml) ± EPI: MBX2319” value ([4]; + 25 μM MBX2319) of the same molecule?
A: 0.013 µg/mL

Q: And the “MIC (μg/ml) ± EPI: PAβN” value ([4]; + 25 μM PAβN)?
A: 0.022 µg/mL

Q: What about the “MIC (μg/ml) ± EPI: MBX2319” value ([5]; Shigella flexneri ATCC 12022, + 25 μM MBX2319) of the same molecule?
A: 0.016 µg/mL

Q: What about the “MIC (μg/ml) ± EPI: PAβN” value ([5]; Shigella flexneri ATCC 12022, + 25 μM PAβN) of the same molecule?
A: 0.031 µg/mL

Q: And the MIC ([5]; Shigella flexneri, ATCC12022, read-out: MIC (μg/ml) ± EPI: None)?
A: 0.063 µg/mL

Q: What about the “MIC (μg/ml) ± EPI: MBX2319” value ([6]; + 25 μM MBX2319) of the same molecule?
A: 0.016 µg/mL

Q: And the “MIC (μg/ml) ± EPI: PAβN” value ([6]; + 25 μM PAβN)?
A: 0.044 µg/mL

Q: What about the MIC ([6]; ATCC14028, no EPI, read-out: MIC (μg/ml) ± EPI: None) of the same molecule?
A: 0.062 µg/mL

Q: What about the “MIC (μg/ml) ± EPI: MBX2319” value ([7]; + 25 μM MBX2319) of the same molecule?
A: 0.149 µg/mL

Q: And the “MIC (μg/ml) ± EPI: PAβN” value ([7]; + 25 μM PAβN)?
A: 0.5 µg/mL

Q: What about the MIC ([7]; ATCC700603, no EPI, read-out: MIC (μg/ml) ± EPI: None) of the same molecule?
A: 0.71 µg/mL

Q: What about the MIC [8, 14] of the same molecule?
A: 0.016 µg/mL

Q: And the “MIC (μg/ml) with MBX2319 at concn (μM) of: 1.56” value ([8]; ΔacrB, MBX2319 1.56 μM)?
A: 0.016 µg/mL

Q: What about the “MIC (μg/ml) with MBX2319 at concn (μM) of: 3.13” value (shortened to “MIC (μg/ml) with MBX2319 … 3.13”) ([8]; ΔacrB, MBX2319 3.13 μM) of the same molecule?
A: 0.016 µg/mL

Q: What about the “MIC (μg/ml) with MBX2319 at concn (μM) of: 6.25” value (“MIC (μg/ml) with MBX2319 … 6.25” for short) ([8]; ΔacrB, MBX2319 6.25 μM) of the same molecule?
A: 0.016 µg/mL

Q: And the “MIC (μg/ml) with MBX2319 at concn (μM) of: 25” value (“MIC (μg/ml) … (μM) of: 25” below) ([8]; ΔacrB, MBX2319 25 μM)?
A: 0.016 µg/mL

Q: And the “MIC (μg/ml) with MBX2319 at concn (μM) of: 50” value (“MIC (μg/ml) with MBX2319 … 50” for short) ([8]; ΔacrB, MBX2319 50 μM)?
A: 0.016 µg/mL

Q: And the “MIC (μg/ml) with MBX2319 at concn (μM) of: 12.5” value (from here on “MIC (μg/ml) with MBX2319 … 12.5”) ([8]; ΔacrB, MBX2319 […])?
A: 0.016 µg/mL

Q: And the MIC [9, 14]?
A: 0.063 µg/mL

Q: What about the “MIC (μg/ml) with MBX2319 … 6.25” value ([9]; ΔacrF, MBX2319 6.25 μM) of the same molecule?
A: 0.016 µg/mL

Q: And the “MIC (μg/ml) … (μM) of: 25” value ([9]; ΔacrF, MBX2319 25 μM)?
A: 0.016 µg/mL

Q: What about the “MIC (μg/ml) with MBX2319 … 50” value ([9]; ΔacrF, MBX2319 50 μM) of the same molecule?
A: 0.016 µg/mL

Q: And the “MIC (μg/ml) with MBX2319 … 12.5” value ([9]; ΔacrF, MBX2319 […])?
A: 0.016 µg/mL

Q: And the “MIC (μg/ml) with MBX2319 … 3.13” value ([10]; MBX2319 3.13 μM)?
A: 0.016 µg/mL

Q: And the “MIC (μg/ml) with MBX2319 … 6.25” value ([10]; MBX2319 6.25 μM)?
A: 0.016 µg/mL

Q: And the “MIC (μg/ml) … (μM) of: 25” value ([10]; MBX2319 25 μM)?
A: 0.016 µg/mL

Q: And the “MIC (μg/ml) with MBX2319 … 50” value ([10]; MBX2319 50 μM)?
A: 0.016 µg/mL

Q: What about the “MIC (μg/ml) with MBX2319 … 12.5” value ([10]; MBX2319 […]) of the same molecule?
A: 0.016 µg/mL

Q: What about the MIC [11, 14] of the same molecule?
A: 0.016 µg/mL

Q: What about the “MIC (μg/ml) with MBX2319 at concn (μM) of: 1.56” value ([11]; ΔtolC, MBX2319 1.56 μM) of the same molecule?
A: 0.016 µg/mL

Q: What about the “MIC (μg/ml) with MBX2319 … 3.13” value ([11]; ΔtolC, MBX2319 3.13 μM) of the same molecule?
A: 0.016 µg/mL

Q: What about the MIC [12] of the same molecule?
A: 0.06 µg/mL (≈ 0.166 µM)

Q: What about the “MIC (μg/ml) ± EPI: MBX2319” value ([13]; + 25 μM MBX2319) of the same molecule?
A: 1 µg/mL

Q: What about the “MIC (μg/ml) ± EPI: PAβN” value ([13]; + 25 μM PAβN) of the same molecule?
A: 0.5 µg/mL

Q: And the MIC ([13]; Pseudomonas aeruginosa, ATCC27853, no EPI, read-out: MIC (μg/ml) ± EPI: None)?
A: 1 µg/mL

Source: patent US9540389B2, “Antimicrobial potentiators” (priority 2013, dated 2017)
